Among the data in patent US9328138B2 (priority 2011, dated 2016) are Ki values, retold here.

Assay [1] addresses T1, HCV genotype 1b (BK) NS3 modified enzyme with a R155K mutation (Hepatitis C virus genotype 1b, UniProt P26663, R1181K).
T1 construct: HCV genotype 1b (BK) NS3 modified enzyme
Kind of assay: HCV NS3 protease time-resolved fluorescence (TRF) assay, genotype 1b R155K. Type of assay: biochemical. The settings on record: Ki 1b R155K, genotype 1b (BK) NS3 R155K; single value. The method, boiled down: (§1)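 Inhibitor titrations are mixed with NS3/NS4A in pH 7.5 HEPES buffer containing 10 mM DTT and 15% glycerol for 10 min before substrate (25 nM final) is added. After 6 h at room temperature, delayed fluorescence is read and fitted to a four-parameter curve for IC50.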

Assay [2] deals with HCV NS3 protease genotype 3a (3A-1) (Hepatitis C virus genotype 3a, UniProt Q81258). Kind of assay: HCV NS3 protease time-resolved fluorescence (TRF) assay, genotype 3a. The format is biochemical. As to conditions: Ki 3a. The essentials:
as §1

Each structure is given as a SMILES string.

The Ki is the dissociation constant of the complex between target and ligand, obtained from inhibition or displacement. High values mean lower affinity, low ones higher affinity.

Regarding `C=C[C@@H]1C[C@]1(NC(=O)[C@@H]1C[C@@H]2CN1C(=O)[C@H](C(C)(C)C)NC(=O)O[C@@H]1C[C@H]1CCCCCc1c(nc3ccccc3c1OCCCNC(C)COC)O2)C(=O)NS(=O)(=O)C1(C)CC1` (stereo partly drawn) [Example 179, (1aR,5S,8S,10R,22aR)-5-tert-butyl-N-[(1R,2S)-2-ethenyl-1-{[(1-methylcyclopropyl)sulfonyl]carbamoyl}cyclopropyl]-17-{3-[(1-methoxypropan-2-yl)amino]propoxy}-3,6-dioxo-1,1a,3,4,5,6,9,10,18,19,20,21,22,22a-tetradecahydro-8H-7,10-methanocyclopropa[18,19][1,10,3,6] dioxadiazacyclononadecino[11,12-b] quinoline-8-carboxamide], the results for the inhibitory constant (Ki) in assay [1] and in assay [2] were 0.034 nM and 0.58 nM, respectively.
The like results for `C=C[C@@H]1C[C@]1(NC(=O)[C@@H]1C[C@@H]2CN1C(=O)[C@H](C(C)(C)C)NC(=O)O[C@@H]1C[C@H]1CCCCCc1c(nc3ccccc3c1OCCCNC1CCC1)O2)C(=O)NS(=O)(=O)C1(C)CC1` [Example 180, (1aR,5S,8S,10R,22aR)-5-tert-butyl-17-[3-(cyclobutylamino)propoxy]-N-[(1R,2S)-2-ethenyl-1-{[(1-methylcyclopropyl)sulfonyl]carbamoyl}cyclopropyl]-3,6-dioxo-1,1a,3,4,5,6,9,10, 18,19,20,21,22,22a-tetradeca hydro-8H-7,10-methanocyclopropa[18,19][1,10,3,6] dioxadiazacyclononadecino[11,12-b] quinoline-8-carboxamide] were, in that order, 0.037 nM and 0.58 nM.
The matching figures for `C=C[C@@H]1C[C@]1(NC(=O)[C@@H]1C[C@@H]2CN1C(=O)[C@H](C(C)(C)C)NC(=O)O[C@@H]1C[C@H]1CCCCCc1c(nc3ccccc3c1OCCCNC1CCOCC1)O2)C(=O)NS(=O)(=O)C1(C)CC1` [Example 181, (1aR,5S,8S,10R,22aR)-5-tert-butyl-N-[(1R,2S)-2-ethenyl-1-{[(1-methylcyclopropyl)sulfonyl]carbamoyl}cyclopropyl]-3,6-dioxo-17-[3-(tetrahydro-2H-pyran-4-ylamino)propoxy]-1,1a,3,4,5,6,9,10,18, 19,20,21,22,22a-tetradecahydro-8H-7,10-methanocyclopropa[18,19][1,10,3,6] dioxadiazacyclononadecino[11,12-b] quinoline-8-carboxamide]: 0.065 nM and 0.78 nM.
The like results for `C=C[C@@H]1C[C@]1(NC(=O)[C@@H]1C[C@@H]2CN1C(=O)[C@H](C(C)(C)C)NC(=O)O[C@@H]1C[C@H]1CCCCCc1c(nc3ccccc3c1OCCCNC1CCCC1)O2)C(=O)NS(=O)(=O)C1(C)CC1` [Example 182, (1aR,5S,8S,10R,22aR)-5-tert-butyl-17-[3-(cyclopentylamino)propoxy]-N-[(1R,2S)-2-ethenyl-1-{[(1-methylcyclopropyl)sulfonyl]carbamoyl}cyclopropyl]-3,6-dioxo-1,1a,3,4,5,6,9,10, 18,19,20,21,22,22a-tetradecahydro-8H-7,10-methanocyclopropa[18,19][1,10,3,6] dioxadiazacyclononadecino[11,12-b] quinoline-8-carboxamide] were, in that order, 0.064 nM and 0.61 nM.
On to `C=C[C@@H]1C[C@]1(NC(=O)[C@@H]1C[C@@H]2CN1C(=O)[C@H](C(C)(C)C)NC(=O)O[C@@H]1C[C@H]1CCCCCc1c(nc3ccccc3c1OCCCNC1CC1)O2)C(=O)NS(=O)(=O)C1(C)CC1` [Example 183, (1aR,5S,8S,10R,22aR)-5-tert-butyl-17-[3-(cyclopropylamino)propoxy]-N-[(1R,2S)-2-ethenyl-1-{[(1-methylcyclopropyl)sulfonyl]carbamoyl}cyclopropyl]-3,6-dioxo-1,1a,3,4,5,6,9,10, 18,19,20,21,22,22a-tetradeca hydro-8H-7,10-methanocyclopropa[18,19][1,10,3,6] dioxadiazacyclononadecino[11,12-b] quinoline-8-carboxamide], for which the Ki in assay [1] was determined as 0.07 nM; in assay [2] it was 0.95 nM.
